The nature of this data set: Saturation solubilities of the oligopeptide (cilengitide) in the solvent indicated, with pH. Type of data set: physicochemical. Particulars: in physiological saline solution. The method, then:
In order to determine the saturation solubilities, the oligopeptide was stirred for 1 hour at room temperature in the solvent indicated in each case.
Analogously to Example 1, the effect of addition of β-cyclodextrin ethers (MS 0.63) on the saturation solubilities of the oligopeptides was determined using the example of cilengitide.

Converted amounts (≈) assume the structure as drawn.

As usually defined, the solubility is how much of the substance goes into solution per volume. Take `CC(C)[C@H]1C(=O)N[C@@H](CCCN=C(N)N)C(=O)NCC(=O)N[C@@H](CC(=O)O)C(=O)N[C@H](Cc2ccccc2)C(=O)N1C` [Cilengitide, cyclo-(Arg-Gly-Asp-D-Phe-NMe-Val)]: the solubility at 1 h is ~19 mg/mL (≈ 32.3 mM).

For the origin of these results see patent publication US7262165B2, “Aqueous preparation containing oligopeptides and etherified cyclodextrin” (Merck Patent GmbH, priority 2002, dated 2007).
